Reference: ChEMBL document CHEMBL4507282, “Data for DCP probe BI-1950” (2021)

Legend:
[1] = biological target: Activin receptor type-2B (Homo sapiens) (UniProt Q13705); conditions: Compound concentration 1000.0 nM
[2] = biological target: Atypical kinase COQ8B, mitochondrial (Homo sapiens) (UniProt Q96D53); conditions: Compound concentration 1000.0 nM
[3] = biological target: Calcium/calmodulin-dependent protein kinase type 1B (Homo sapiens) (UniProt Q6P2M8); conditions: Compound concentration 1000.0 nM
[4] = biological target: Calcium/calmodulin-dependent protein kinase type II subunit beta (Homo sapiens) (UniProt Q13554); conditions: Compound concentration 1000.0 nM
[5] = biological target: Calcium/calmodulin-dependent protein kinase kinase 1 (Homo sapiens) (UniProt Q8N5S9); conditions: Compound concentration 1000.0 nM
[6] = biological target: Cyclin-dependent kinase 2 (Homo sapiens) (UniProt P24941); conditions: Compound concentration 1000.0 nM
[7] = biological target: Cyclin-dependent kinase-like 1 (Homo sapiens) (UniProt Q00532); conditions: Compound concentration 1000.0 nM
[8] = biological target: Dual specificity protein kinase CLK1 (Homo sapiens) (UniProt P49759); conditions: Compound concentration 1000.0 nM
[9] = biological target: Macrophage colony-stimulating factor 1 receptor (Homo sapiens) (UniProt P07333); conditions: Compound concentration 1000.0 nM
[10] = biological target: Death-associated protein kinase 3 (Homo sapiens) (UniProt O43293); conditions: Compound concentration 1000.0 nM
[11] = biological target: Dual specificity tyrosine-phosphorylation-regulated kinase 1A (Homo sapiens) (UniProt Q13627); conditions: Compound concentration 1000.0 nM
[12] = system: Epidermal growth factor receptor (Homo sapiens), P00533 [L858R,T790M]; conditions: Compound concentration 1000.0 nM
[13] = biological target: Receptor tyrosine-protein kinase erbB-3 (Homo sapiens) (UniProt P21860); conditions: Compound concentration 1000.0 nM
[14] = biological target: Mitogen-activated protein kinase 3 (Homo sapiens) (UniProt P27361); conditions: Compound concentration 1000.0 nM
[15] = biological target: Fibroblast growth factor receptor 3 (Homo sapiens) (UniProt P22607); conditions: Compound concentration 1000.0 nM
[16] = biological target: Fibroblast growth factor receptor 4 (Homo sapiens) (UniProt P22455); conditions: Compound concentration 1000.0 nM
[17] = system: Receptor-type tyrosine-protein kinase FLT3 (Homo sapiens), P36888 [K663Q]; conditions: Compound concentration 1000.0 nM
[18] = system: Receptor-type tyrosine-protein kinase FLT3 (Homo sapiens), P36888 [R834Q]; conditions: Compound concentration 1000.0 nM
[19] = biological target: Vascular endothelial growth factor receptor 3 (Homo sapiens) (UniProt P35916); conditions: Compound concentration 1000.0 nM
[20] = biological target: Homeodomain-interacting protein kinase 4 (Homo sapiens) (UniProt Q8NE63); conditions: Compound concentration 1000.0 nM
[21] = biological target: Insulin-like growth factor 1 receptor (Homo sapiens) (UniProt P08069); conditions: Compound concentration 1000.0 nM
[22] = system: Mast/stem cell growth factor receptor Kit (Homo sapiens), P10721 [V559D,T670I]; conditions: Compound concentration 1000.0 nM
[23] = biological target: Serine/threonine-protein kinase LATS1 (Homo sapiens) (UniProt O95835); conditions: Compound concentration 1000.0 nM
[24] = biological target: MAP kinase-activated protein kinase 5 (Homo sapiens) (UniProt Q8IW41); conditions: Compound concentration 1000.0 nM
[25] = biological target: Maternal embryonic leucine zipper kinase (Homo sapiens) (UniProt Q14680); conditions: Compound concentration 1000.0 nM
[26] = biological target: Myosin light chain kinase, smooth muscle (Homo sapiens) (UniProt Q15746); conditions: Compound concentration 1000.0 nM
[27] = biological target: Mitogen-activated protein kinase 13 (Homo sapiens) (UniProt O15264); conditions: Compound concentration 1000.0 nM
[28] = biological target: Cyclin-dependent kinase 16 (Homo sapiens) (UniProt Q00536); conditions: Compound concentration 1000.0 nM
[29] = biological target: Phosphatidylinositol 4-kinase beta (Homo sapiens) (UniProt Q9UBF8); conditions: Compound concentration 1000.0 nM
[30] = biological target: 1-phosphatidylinositol 3-phosphate 5-kinase (Homo sapiens) (UniProt Q9Y2I7); conditions: Compound concentration 1000.0 nM
[31] = biological target: Serine/threonine-protein kinase pim-1 (Homo sapiens) (UniProt P11309); conditions: Compound concentration 1000.0 nM
[32] = biological target: Serine/threonine-protein kinase N1 (Homo sapiens) (UniProt Q16512); conditions: Compound concentration 1000.0 nM
[33] = biological target: Serine/threonine-protein kinase PknB (Mycobacterium tuberculosis) (UniProt P9WI81); conditions: Compound concentration 1000.0 nM
[34] = biological target: cGMP-dependent protein kinase 1 (Homo sapiens) (UniProt Q13976); conditions: Compound concentration 1000.0 nM
[35] = biological target: Ribosomal protein S6 kinase alpha-1 (Homo sapiens) (UniProt Q15418); conditions: Compound concentration 1000.0 nM
[36] = biological target: Ribosomal protein S6 kinase alpha-1 (Homo sapiens) (UniProt Q15418); conditions: Compound concentration 1000.0 nM; remark: listed apart in the source
[37] = biological target: Uncharacterized serine/threonine-protein kinase SBK3 (Homo sapiens) (UniProt P0C264); conditions: Compound concentration 1000.0 nM
[38] = biological target: NT-3 growth factor receptor (Homo sapiens) (UniProt Q16288); conditions: Compound concentration 1000.0 nM
[39] = biological target: Tyrosine-protein kinase TXK (Homo sapiens) (UniProt P42681); conditions: Compound concentration 1000.0 nM
[40] = biological target: Non-receptor tyrosine-protein kinase TYK2 (Homo sapiens) (UniProt P29597); conditions: Compound concentration 1000.0 nM
[41] = biological target: Tyrosine-protein kinase receptor TYRO3 (Homo sapiens) (UniProt Q06418); conditions: Compound concentration 1000.0 nM
[42] = biological target: Mitogen-activated protein kinase kinase kinase 20 (Homo sapiens) (UniProt Q9NYL2); conditions: Compound concentration 1000.0 nM
[43] = biological target: 5-hydroxytryptamine receptor 2A (Homo sapiens) (UniProt P28223); conditions: Compound concentration 10.0 uM
[44] = biological target: Alpha-1A adrenergic receptor (Homo sapiens) (UniProt P35348); conditions: Compound concentration 10.0 uM
[45] = biological target: Sigma intracellular receptor 2 (Homo sapiens, UniProt Q5BJF2); conditions: Compound concentration 10.0 uM
Chain of Sigma intracellular receptor 2 (Q5BJF2 whole entry): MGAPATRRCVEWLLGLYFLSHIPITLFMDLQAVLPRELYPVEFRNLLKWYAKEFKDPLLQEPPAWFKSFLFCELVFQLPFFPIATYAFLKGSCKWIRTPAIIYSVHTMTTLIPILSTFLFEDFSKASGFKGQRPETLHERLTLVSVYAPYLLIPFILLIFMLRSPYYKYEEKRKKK

Chain of Ribosomal protein S6 kinase alpha-1 (Homo sapiens) (Q15418 whole entry): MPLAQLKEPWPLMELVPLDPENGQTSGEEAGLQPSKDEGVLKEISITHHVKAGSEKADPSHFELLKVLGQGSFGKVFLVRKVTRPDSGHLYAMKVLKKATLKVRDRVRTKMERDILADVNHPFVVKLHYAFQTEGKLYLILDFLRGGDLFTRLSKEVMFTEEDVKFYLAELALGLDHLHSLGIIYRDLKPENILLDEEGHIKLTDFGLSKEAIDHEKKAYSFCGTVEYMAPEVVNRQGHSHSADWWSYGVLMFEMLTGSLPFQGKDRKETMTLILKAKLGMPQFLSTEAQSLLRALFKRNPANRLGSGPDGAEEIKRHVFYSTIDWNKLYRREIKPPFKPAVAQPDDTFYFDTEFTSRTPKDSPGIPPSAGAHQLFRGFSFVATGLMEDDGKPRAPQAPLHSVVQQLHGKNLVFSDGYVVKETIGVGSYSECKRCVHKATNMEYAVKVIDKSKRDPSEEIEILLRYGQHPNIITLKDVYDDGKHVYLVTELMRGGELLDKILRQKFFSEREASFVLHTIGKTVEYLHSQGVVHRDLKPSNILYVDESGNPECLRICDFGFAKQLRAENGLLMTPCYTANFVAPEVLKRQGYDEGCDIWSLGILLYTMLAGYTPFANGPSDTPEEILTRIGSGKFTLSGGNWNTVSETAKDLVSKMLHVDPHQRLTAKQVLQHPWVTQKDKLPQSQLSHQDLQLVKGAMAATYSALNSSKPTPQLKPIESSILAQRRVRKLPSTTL
Chain of Calcium/calmodulin-dependent protein kinase type II subunit beta (Homo sapiens) (Q13554 whole entry): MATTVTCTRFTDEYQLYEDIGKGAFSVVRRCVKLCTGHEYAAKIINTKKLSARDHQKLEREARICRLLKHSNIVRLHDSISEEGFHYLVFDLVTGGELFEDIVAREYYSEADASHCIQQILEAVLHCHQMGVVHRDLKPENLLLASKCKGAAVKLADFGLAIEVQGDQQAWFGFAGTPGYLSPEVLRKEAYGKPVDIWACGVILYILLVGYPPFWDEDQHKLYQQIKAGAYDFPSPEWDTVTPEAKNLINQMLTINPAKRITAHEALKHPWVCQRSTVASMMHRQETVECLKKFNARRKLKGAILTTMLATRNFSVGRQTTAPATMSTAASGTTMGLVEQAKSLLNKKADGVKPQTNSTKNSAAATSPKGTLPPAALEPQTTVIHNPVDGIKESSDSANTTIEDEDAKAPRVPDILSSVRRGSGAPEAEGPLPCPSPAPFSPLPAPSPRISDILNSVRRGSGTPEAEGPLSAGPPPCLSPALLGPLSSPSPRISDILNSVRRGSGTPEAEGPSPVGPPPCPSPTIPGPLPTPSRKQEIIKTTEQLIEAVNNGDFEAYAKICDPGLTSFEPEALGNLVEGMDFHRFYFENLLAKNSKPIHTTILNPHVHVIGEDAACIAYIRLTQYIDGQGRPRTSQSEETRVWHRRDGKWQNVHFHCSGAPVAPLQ
Chain of Mitogen-activated protein kinase 3 (Homo sapiens) (P27361 whole entry): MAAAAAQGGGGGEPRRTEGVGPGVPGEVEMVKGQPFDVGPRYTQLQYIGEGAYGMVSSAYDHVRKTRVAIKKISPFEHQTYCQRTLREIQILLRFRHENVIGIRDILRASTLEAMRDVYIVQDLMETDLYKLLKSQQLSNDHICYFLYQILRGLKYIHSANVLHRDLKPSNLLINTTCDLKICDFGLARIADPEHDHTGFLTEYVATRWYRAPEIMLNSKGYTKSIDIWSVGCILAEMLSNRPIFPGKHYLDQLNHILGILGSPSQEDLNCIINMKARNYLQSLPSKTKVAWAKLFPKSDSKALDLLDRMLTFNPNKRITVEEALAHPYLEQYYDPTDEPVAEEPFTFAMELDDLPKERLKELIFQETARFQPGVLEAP
Chain of Alpha-1A adrenergic receptor (Homo sapiens) (P35348 whole entry): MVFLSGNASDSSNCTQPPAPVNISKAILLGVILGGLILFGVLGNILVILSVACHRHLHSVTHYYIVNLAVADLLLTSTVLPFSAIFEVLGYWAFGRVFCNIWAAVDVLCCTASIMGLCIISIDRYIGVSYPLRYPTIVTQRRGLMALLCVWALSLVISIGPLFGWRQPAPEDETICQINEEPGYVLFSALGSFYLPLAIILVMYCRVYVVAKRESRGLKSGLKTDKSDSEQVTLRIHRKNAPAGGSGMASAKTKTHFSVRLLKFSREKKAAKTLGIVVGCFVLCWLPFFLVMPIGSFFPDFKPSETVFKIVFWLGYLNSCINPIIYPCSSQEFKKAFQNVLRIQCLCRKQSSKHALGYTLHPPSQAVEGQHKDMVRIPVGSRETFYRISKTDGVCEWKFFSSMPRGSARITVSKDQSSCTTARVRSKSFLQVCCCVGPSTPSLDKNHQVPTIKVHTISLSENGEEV
Chain of cGMP-dependent protein kinase 1 (Homo sapiens) (Q13976 whole entry): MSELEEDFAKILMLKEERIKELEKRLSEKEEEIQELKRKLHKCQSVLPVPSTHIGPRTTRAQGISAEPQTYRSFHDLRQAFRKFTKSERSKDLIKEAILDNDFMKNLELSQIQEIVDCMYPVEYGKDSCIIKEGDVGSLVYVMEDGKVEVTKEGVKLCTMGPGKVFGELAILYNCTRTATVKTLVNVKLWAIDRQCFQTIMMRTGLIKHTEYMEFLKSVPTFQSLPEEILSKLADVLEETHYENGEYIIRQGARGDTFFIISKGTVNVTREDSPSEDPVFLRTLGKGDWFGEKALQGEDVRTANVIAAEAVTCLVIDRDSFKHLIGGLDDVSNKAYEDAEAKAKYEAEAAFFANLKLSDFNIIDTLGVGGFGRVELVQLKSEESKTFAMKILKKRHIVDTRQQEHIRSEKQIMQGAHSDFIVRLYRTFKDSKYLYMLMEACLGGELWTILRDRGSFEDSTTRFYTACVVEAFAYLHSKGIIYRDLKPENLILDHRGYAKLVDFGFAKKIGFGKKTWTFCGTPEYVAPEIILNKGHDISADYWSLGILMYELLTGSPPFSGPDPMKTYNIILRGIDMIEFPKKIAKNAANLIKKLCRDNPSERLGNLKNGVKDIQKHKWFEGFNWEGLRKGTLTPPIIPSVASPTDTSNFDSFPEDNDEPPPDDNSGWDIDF
Chain of Cyclin-dependent kinase 16 (Homo sapiens) (Q00536 whole entry): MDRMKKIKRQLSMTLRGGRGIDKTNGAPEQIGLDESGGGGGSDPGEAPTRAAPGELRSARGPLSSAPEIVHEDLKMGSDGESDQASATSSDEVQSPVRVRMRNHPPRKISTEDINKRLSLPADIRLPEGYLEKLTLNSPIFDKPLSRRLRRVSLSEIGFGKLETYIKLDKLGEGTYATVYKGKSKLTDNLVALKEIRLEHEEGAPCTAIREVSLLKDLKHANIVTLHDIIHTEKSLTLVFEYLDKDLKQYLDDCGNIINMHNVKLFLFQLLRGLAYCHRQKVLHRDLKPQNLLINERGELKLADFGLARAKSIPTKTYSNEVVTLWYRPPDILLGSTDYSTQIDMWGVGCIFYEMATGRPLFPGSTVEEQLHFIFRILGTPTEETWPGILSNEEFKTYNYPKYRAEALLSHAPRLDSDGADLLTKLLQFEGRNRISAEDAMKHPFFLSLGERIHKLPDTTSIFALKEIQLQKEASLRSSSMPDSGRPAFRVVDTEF
Chain of Receptor tyrosine-protein kinase erbB-3 (Homo sapiens) (P21860 whole entry): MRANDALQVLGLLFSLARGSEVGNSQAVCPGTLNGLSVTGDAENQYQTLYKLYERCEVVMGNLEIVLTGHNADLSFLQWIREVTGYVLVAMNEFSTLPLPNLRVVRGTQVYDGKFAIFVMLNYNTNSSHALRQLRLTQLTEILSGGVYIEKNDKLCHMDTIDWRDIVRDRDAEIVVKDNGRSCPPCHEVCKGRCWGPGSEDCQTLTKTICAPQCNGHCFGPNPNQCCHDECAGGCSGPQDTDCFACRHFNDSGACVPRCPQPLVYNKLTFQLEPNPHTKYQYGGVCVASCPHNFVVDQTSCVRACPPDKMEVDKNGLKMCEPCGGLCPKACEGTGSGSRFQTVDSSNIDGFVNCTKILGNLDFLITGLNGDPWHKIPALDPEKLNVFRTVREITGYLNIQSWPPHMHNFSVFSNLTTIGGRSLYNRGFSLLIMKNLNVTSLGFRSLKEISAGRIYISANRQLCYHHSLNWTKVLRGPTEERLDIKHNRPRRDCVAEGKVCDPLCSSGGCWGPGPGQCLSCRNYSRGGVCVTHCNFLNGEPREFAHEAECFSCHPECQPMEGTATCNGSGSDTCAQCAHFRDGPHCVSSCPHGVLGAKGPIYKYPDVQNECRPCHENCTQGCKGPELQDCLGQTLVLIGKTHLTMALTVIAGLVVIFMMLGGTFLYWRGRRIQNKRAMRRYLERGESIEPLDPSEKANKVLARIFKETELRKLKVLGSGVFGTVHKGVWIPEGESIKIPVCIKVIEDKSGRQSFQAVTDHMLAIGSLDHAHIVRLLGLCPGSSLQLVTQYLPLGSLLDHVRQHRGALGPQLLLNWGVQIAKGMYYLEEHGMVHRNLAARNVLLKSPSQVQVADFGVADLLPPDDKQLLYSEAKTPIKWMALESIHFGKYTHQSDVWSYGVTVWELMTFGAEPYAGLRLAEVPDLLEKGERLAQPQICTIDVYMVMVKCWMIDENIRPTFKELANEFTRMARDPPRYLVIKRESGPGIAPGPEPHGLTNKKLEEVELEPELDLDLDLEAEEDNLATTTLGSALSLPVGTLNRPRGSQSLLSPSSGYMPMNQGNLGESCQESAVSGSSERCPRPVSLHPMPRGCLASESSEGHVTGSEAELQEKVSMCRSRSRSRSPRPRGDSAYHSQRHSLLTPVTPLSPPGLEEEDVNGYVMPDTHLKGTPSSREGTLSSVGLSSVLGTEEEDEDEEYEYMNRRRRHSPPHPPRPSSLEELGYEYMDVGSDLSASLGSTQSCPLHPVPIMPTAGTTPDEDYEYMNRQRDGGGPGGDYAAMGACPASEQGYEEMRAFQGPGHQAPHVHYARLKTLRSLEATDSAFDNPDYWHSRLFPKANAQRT

`C[C@H](NC(=O)c1cnc2n1[C@](C)(Cc1ccc(C#N)cc1)C(=O)N2c1cc(Cl)c(F)c(Cl)c1)C(=O)NC1(c2ccccn2)CC1` [BI 1950] showed a residual activity [1] of 100%, a residual activity [2] of 100% and a residual activity [3] of 83%. The residual activity [4] was 100%, the residual activity [5] was 100% and the residual activity [6] was 100%. It also gave a residual activity [7] of 73%, a residual activity [8] of 86% and a residual activity [9] of 100%. For the same molecule, the residual activity [10] was 97%, the residual activity [11] was 100% and the residual activity [12] was 82%. The residual activity [13] was 100%, the residual activity [14] was 91% and the residual activity [15] was 100%. The residual activity [16] was 100%, the residual activity [17] was 100% and the residual activity [18] was 90%. It also gave a residual activity [19] of 100%, a residual activity [20] of 100% and a residual activity [21] of 99%. For the same molecule, the residual activity [22] was 100%, the residual activity [23] was 100% and the residual activity [24] was 96%. For the same molecule, the residual activity [25] was 86%, the residual activity [26] was 100% and the residual activity [27] was 100%. For the same molecule, the residual activity [28] was 100%, the residual activity [29] was 100% and the residual activity [30] was 100%. For the same molecule, the residual activity [31] was 100%, the residual activity [32] was 100% and the residual activity [33] was 100%. For the same molecule, the residual activity [34] was 62%, the residual activity [35] was 100% and the residual activity [36] was 100%. The residual activity [37] was 100%, the residual activity [38] was 100% and the residual activity [39] was 90%. For the same molecule, the residual activity [40] was 100%, the residual activity [41] was 100% and the residual activity [42] was 100%. For the same molecule, the inhibition [43] was 9.3%, the inhibition [44] was -8.89% and the inhibition [45] was 25.9%.
In the case of `C[C@@]1(Cc2ccc(C#N)cc2)C(=O)N(c2cc(Cl)cc(Cl)c2)c2ncc(C(=O)NC3(c4nc(C5CCC5)no4)CC3)n21` [BI 9446], the residual activity [1] is reported as 100%, the residual activity [2] is reported as 100% and the residual activity [3] is reported as 65%. It also gave a residual activity [4] of 90%, a residual activity [5] of 100% and a residual activity [6] of 100%. It also gave a residual activity [7] of 100%, a residual activity [8] of 100% and a residual activity [9] of 100%. For the same molecule, the residual activity [10] was 94%, the residual activity [11] was 99% and the residual activity [12] was 79%. For the same molecule, the residual activity [13] was 96%, the residual activity [14] was 86% and the residual activity [15] was 100%. It also gave a residual activity [16] of 96%, a residual activity [17] of 100% and a residual activity [18] of 100%. It also gave a residual activity [19] of 100%, a residual activity [20] of 100% and a residual activity [21] of 100%. The residual activity [22] was 100%, the residual activity [23] was 96% and the residual activity [24] was 100%. For the same molecule, the residual activity [25] was 89%, the residual activity [26] was 100% and the residual activity [27] was 100%. It also gave a residual activity [28] of 97%, a residual activity [29] of 100% and a residual activity [30] of 100%. The residual activity [31] was 100%, the residual activity [32] was 100% and the residual activity [33] was 96%. It also gave a residual activity [34] of 100%, a residual activity [35] of 100% and a residual activity [36] of 100%. For the same molecule, the residual activity [37] was 100%, the residual activity [38] was 100% and the residual activity [39] was 100%. For the same molecule, the residual activity [40] was 100%, the residual activity [41] was 100% and the residual activity [42] was 100%. For the same molecule, the inhibition [43] was 31.9%, the inhibition [44] was -1.65% and the inhibition [45] was 58%.
